Results as given in patent US9137987B2, “Moderated release aquatic herbicide formulations” (SePro Corporation, priority 2011, dated 2015).
“Also recorded” adds a separate entry of the source.

Legend:
fish = details: cited from earlier work
curly-leaf pondweed = test: Greenhouse concentration and exposure trial on curly-leaf pondweed; format: in vivo, Potamogeton crispus
Description: Error bars are +1 standard deviation (n=3).
Relative to control of invasive curly-leaf pondweed (or CLP), greenhouse studies of penoxsulam concentration and exposure requirements to achieve control of this species have documented that exposure periods of 3-7 days to 3-6 ppb penoxsulam can provide effective control. FIG. 10 presents results of a representative greenhouse trial of penoxsulam treatment of CLP. 13-cm diameter pots were filled with potting soil amended with Osmocote slow release fertilizer (14-14-14). Four apical CLP tips, harvested from a culture at the SRTC, were planted into each pot. A one-inch sand cap was placed over the potting soil and submersed into 54 gallon tubs to allow for grow-out. At 19 days after planting, the five tubs were treated with 0, 3, 6, 12, or 24 ppb penoxsulam. Three pots per treatment were pulled out and placed into a common grow-out tank at 1, 3, 7, and 14 days after treatment (DAT). Once the plants were allowed to grow out for 28 DAT the plants were harvested to determine aboveground dry weight (48 hours at 70° C.).

Eurasian watermilfoil [1] = test: 14C herbicide uptake study, shoot exposure; format: in vivo, Myriophyllum spicatum
Description: Plants were allowed to equilibrate overnight prior to treatment. […] Plants were separated into aboveground and belowground segments. […] After drying, plants were weighed and biomass recorded.

Eurasian watermilfoil [2] = test: 14C-triclopyr uptake study, root exposure; format: in vivo, Myriophyllum spicatum; details: root exposure, 200,000 dpm 14C-triclopyr
Procedure: Threshold absorption is reached within 12-24 hours for below ground tissue and near-maximum translocation to aboveground tissue is reached within 48 hours.
Prior to the experiment, plants were transplanted into glass jars filled with water plus a diluted growth media (Hoagland's Solution) and an eicosane wax plug was added to separate aboveground and belowground portions of the plant. Plants were allowed to equilibrate in this solution for 5 days. The root zone of each plant was treated with 200,000 dpm of 14C-triclopyr. Plants were then moved into 3 gallon tanks with other treated plants. Treatments were replicated 3 times and harvested at 12, 24, 48, 96, 192 HAT. Upon harvest, plants were separated into aboveground and belowground portions, dried, weighed and biomass recorded.

hydrilla = details: Hydrilla verticillata (hydrilla), in vivo
Procedure: Eurasian watermilfoil or hydrilla apical fragments were collected from infested field sites and grown in topsoil cultures in greenhouse conditions until needed for uptake experiments. For uptake studies, 15 cm apical fragments were planted in glass jars in topsoil with a sand cap. Plants were allowed to grow in 30 L tanks until rooted (˜14 days). Prior to experiments plants were removed from water and agarose gel (1.5%) was added to each sand cap surface in each jar to avoid root exposure. Three plants of each species were then placed in 4 L plastic containers containing 3 L of dechlorinated tap water. Plants were allowed to equilibrate overnight prior to treatment. During the study, plants were maintained at room temperature (25° C.) under grow lights. Six containers were treated for each experiment using the following aboveground (i.e., above gel layer and into shoot section) treatments of ^14C-radiolabeled herbicide: Fluridone—10 ppb, Penoxsulam—10 ppb, Triclopyr—1,000 ppb (10 ppb ^14C, remainder ‘cold’ material). All radiolabeled dosing of 10 ppb equated to 222,000 DPM of 14C herbicide. The selected total herbicide rates corresponded to typical use rates for these three aquatic herbicides. […] After drying, plants were weighed and biomass recorded. Plants were then burned using a biological sample oxidizer and radioactivity quantified using liquid scintillation spectroscopy (LSS). […]

[3] = shoot exposure, triclopyr 1,000 ppb, FIG. 1A, hydrilla and Eurasian milfoil not distinguished in text

CNC.O=C(O)COc1ccc(Cl)cc1Cl [2,4-d dimethylamine salt]
toxicity to creatures such as fish versus butoxyethyl ester of 2,4-d (fish; US EPA 2,4-D Re-Registration Eligibility Decision 2005): substantially less toxic

CCN(CC)CC.O=C(O)COc1nc(Cl)c(Cl)cc1Cl [Triclopyr triethylamine]
toxicity to creatures such as fish versus butoxyethyl ester of triclopyr (fish; in vivo): substantially less toxic

COc1cnc(OC)n2nc(NS(=O)(=O)c3c(OCC(F)F)cccc3C(F)(F)F)nc12 [penoxsulam, 2-(2,2-difluoroethoxy)-6-(trifluoromethyl)-N-(5,8-dimethoxy[1,2,4]triazolo-[1,5c]pyrimidin-2-yl)-benzenesulfonamide]
exposure period providing effective control (curly-leaf pondweed; 3-6 ppb penoxsulam): 3 to 7 days
penoxsulam concentration providing effective control (curly-leaf pondweed; exposure periods of 3-7 days): 3-6 ppb

O=C(O)COc1nc(Cl)c(Cl)cc1Cl [triclopyr, 3,5,6-trichloro-2-pyridyloxyacetic acid]
time to maximum uptake (Eurasian watermilfoil [1]; Myriophyllum spicatum (Eurasian watermilfoil), in vivo): ≤ 96 h
dose-corrected maximum uptake versus fluridone and penoxsulam (Eurasian watermilfoil [1]; shoot exposure, Eurasian milfoil, FIG. 1B): Greater dose-corrected uptake; also recorded: much greater on a dose-corrected basis
time to threshold levels in aboveground tissues (Eurasian watermilfoil [1]; [3]): 48 to 96 h
time to threshold levels in belowground tissues (Eurasian watermilfoil [1]; [3]): 6 to 12 h
time to near-maximum translocation to aboveground tissue (Eurasian watermilfoil [2]): ≤ 48 h
time to threshold uptake in belowground tissue (Eurasian watermilfoil [2]): 12 to 24 h
time to maximum uptake (hydrilla): ≤ 96 h
